Data: patent US12187755B2, “Minimal saponin analogues, synthesis and use thereof” (MEMORIAL SLOAN-KETTERING CANCER CENTER, priority 2014, dated 2025)
Entries after “also recorded” stand apart in the source; their conditions may differ.

Legend:
[1] = in vivo fluorescence imaging with fluorescein-labeled saponin and OVA-A647; set-up: species or system mouse; conditions: 24 h post-injection
Description: To address this problem, in vivo fluorescence imaging experiments with fluorescein-labeled active adjuvant 3 (SQS-0-0-5-12) and Alexa-647-conjugated OVA (OVA-A647) were conducted.
Whole-body imaging was performed at 24 h post-injection with a Maestro Imaging System. At 24 h post-injection, mice were sacrificed and the left and right lymph nodes were dissected and imaged separately.

[2] = in vivo; cited from earlier work
[3] = in vivo biodistribution of radioiodinated saponins; set-up: species or system mouse; conditions: with OVA, 24-96 h
Description: The aryl tin saponins (7, 9, 17, S9) were synthesized from the corresponding amine precursors (2, S4, 15, S8) by acylation with N-succinimidyl-4-(trimethylstannyl)benzoate 4 (Et3N, DMF, 21° C., 1-2.5 h). Radiolabeling was achieved by iodination of the aryl tin saponin (20 μg) with [^131I]—NaI and chloramine-T (methanol, 21° C., 1 min), followed by immediate HPLC purification. Solvents were removed by rotary evaporation at 35° C. and the radioiodinated probes were formulated in 0.9% saline for biodistribution studies. Co-elution of the radioiodinated probes with the corresponding cold saponins was used for quality control analysis.
Groups of five mice (naive, C57BL/6J female, 8-10 weeks of age) were injected subcutaneously with the radioiodinated saponin adjuvants of interest (˜[…]), the corresponding non-radiolabeled saponin ([…]), and OVA ([…]) in PBS ([…]). Mice were sacrificed at 24 h, 72 h, and 96 h post-injection. Tissues and organs were harvested and analyzed for distribution of radioactivity normalized to the weight of the organ (% ID/g, percent injected dose per gram). Statistical significance of the difference in recoveries (% ID/g) for the active and attenuated adjuvant was assessed for each tissue or organ using two-tailed unpaired Student's t-test with CI=95%.

C57BL/6J mice [4] = assay: preclinical mouse vaccination model, three-component vaccine (MUC1-KLH, OVA), antibody titers by ELISA; assay type: in vivo; conditions: for antibody titers (anti-KLH, anti-MUC1, anti-OVA IgG): three-component vaccine MUC1-KLH + OVA, s.c. days 0, 7, 14, booster day 65, sera day 72
Description: A radioiodine (^131I) was introduced into the QS-21 saponin scaffold to enable in vivo biodistribution studies. The non-radiolabeled aryl iodide 6 (SQS-0-0-5-18) by acylation of amine 2 (SQS-0-0-5-11) was synthesized (FIG. 1B). Because no in vitro model exists to assess adjuvant activity, biological evaluation of aryl iodide 6 was carried out in a preclinical mouse vaccination model involving a multi-antigen formulation comprised of the immunogenic peptide MUC1 (prostate and breast cancer antigen, non-glycosylated tandem repeat) conjugated to the highly immunogenic KLH carrier protein (MUC1-KLH) and OVA, a reliable immunogen that induces both antibody and T-cell responses in mice. Antibody responses against each of the three antigens, co-administered with the adjuvant of interest, were determined by ELISA.
(§1) Groups of five mice (C57BL/6J, female, 6-8 weeks of age) were vaccinated with a three-component vaccine consisting of MUC1-KLH ([…]) and OVA ([…]), or a four-component vaccine that also included GD3-KLH ([…]). Antigens were co-administered with the adjuvant of interest ([…]) or without adjuvant (no-adjuvant control) in phosphate buffered saline (PBS, […]) via subcutaneous injections on days 0, 7, and 14, followed by a booster on day 65. Mouse sera were collected at day 72 and antibody titers against each antigen were determined by ELISA. Statistical significance of each antibody response compared to the no-adjuvant control was assessed using a two-tailed unpaired Student's t-test with CI=95%. As an initial, general assessment of toxicity, mouse weight loss was monitored on days 0, 1, 2, 3, and 7 after the first vaccination. These animal experiments were conducted as described in MSKCC Institutional Animal Care and Use Committee (IACUC) protocol #97-11-051.

[5] = toxicity assessment by mouse weight loss after first vaccination; assay type: in vivo; conditions: for toxicity assessed by mouse weight loss: three-component vaccine, median percent weight loss
Description: as §1

mice = assay: mouse vaccination with OVA antigen alone (FIG. 7B); assay type: in vivo; conditions: OVA (20 μg)
Description: FIG. 7A: Synthesis of negative control saponin 8 (SQS-0-3-7-18): (i) SOCl2, pyridine, CH2Cl2/DMF, 21° C., 2 h, 91%; (ii) 1. H2 (50 psi), Pd/C (Degussa), THF/EtOH (1:1), 21° C., 24 h; 2. TFA/H2O (4:1), 0° C., 3.3 h, RP-HPLC, 50% (2 steps); (iii) 4, Et3N, DMF, 21° C., 3 h, RP-HPLC, 68%; (iv) 5, Et3N, DMF, 21° C., 2.5 h, RP-HPLC, 53%. FIG. 7B: Biological evaluation of aryl iodide saponin 8 with OVA antigen. Mice were vaccinated with OVA (20 μg) according to the general procedure discussed herein. Median titers represented as red horizontal bars. Statistical significance compared to SQS-21 was assessed using two-tailed unpaired Student's t-test with CI=95%: *=0.01≤p≤0.05 (significant).
Groups of five mice (C57BL/6J, female, 6-8 weeks of age) were vaccinated with a three-component vaccine consisting of MUC1-KLH ([…]) and OVA ([…]), or a four-component vaccine that also included GD3-KLH (5 mg). […] Mouse sera were collected at day 72 and antibody titers against each antigen were determined by ELISA. Statistical significance of each antibody response compared to the no-adjuvant control was assessed using a two-tailed unpaired Student's t-test with CI=95%. As an initial, general assessment of toxicity, mouse weight loss was monitored on days 0, 1, 2, 3, and 7 after the first vaccination. […]

C57BL/6J mice [6] = assay: preclinical mouse vaccination model, four-component vaccine (MUC1-KLH, OVA, GD3-KLH), antibody titers by ELISA; assay type: in vivo; conditions: 20 and 50 μg doses
Description: as §1
These saponin variants were evaluated with a four-component vaccine comprised of MUC1-KLH, OVA, and the poorly immunogenic glycolipid GD3 (melanoma, neuroblastoma, sarcoma antigen) conjugated to KLH (GD3-KLH) (FIGS. 5B-E; see FIG. 16 for full data with both 20 and 50 μg doses).

C57BL/6J mice [7] = assay: antibody subtyping of anti-MUC1 and anti-OVA IgG by class-specific ELISA; assay type: in vivo, mouse
Excerpt: Production of other mouse IgG subtypes, including IgG2a and IgG3, was low or negligible, as indicated by class-specific ELISA. Toxicity remained drastically lower for all four variants compared to NQS-21 and SQS-21 (FIG. 5f).

[8] = biodistribution of radioiodinated ovalbumin with and without adjuvant 6; assay type: in vivo, mouse; conditions: presence and absence of active adjuvant 6
Description: In a complementary experiment, the biodistribution of [^131I]-OVA in the presence and absence of active adjuvant 6 was examined (FIG. 10). […] Thus, the influence of 6 upon OVA antigen biodistribution could not be assessed effectively and an alternative experimental approach was required.
Radiolabeled ovalbumin was synthesized by treating 20 μg of ovalbumin with [^131I]—NaI and Chloramine-T in methanol. The reaction mixture was diluted with 2 mL phosphate buffered saline (PBS) followed by centrifugal filtration at 2800 rpm for 12 min using a 30 kDa molecular weight cutoff filter. This process was repeated twice and the concentrated compound was then formulated in 1 mL 0.9% saline for biodistribution studies.

C[C@H]1O[C@@H](OC2C(O)C(NC(=O)CCCCCN)[C@H](CO)O[C@H]2OC(=O)C23CCC(C)(C)CC2C2=CCC4C5(C)CC[C@H](OC6OC(C(=O)O)[C@@H](O)[C@H](OC7OC[C@@H](O)[C@H](O)[C@@H]7O)[C@@H]6O[C@@H]6OC(CO)C(O)[C@@H](O)[C@@H]6O)[C@](C)(C=O)[C@@H]5CC[C@]4(C)[C@]2(C)C[C@@H]3O)C(O)C(O)C1O[C@@H]1OCC(O)C(O)C1O (stereo partly shown) [compound 2]
OVA-A647 at the site of injection when co-injected with the adjuvant [1]: observed at the site of injection | OVA-A647 localization to the nearest draining lymph nodes when co-injected with the adjuvant ([1]; dissected lymph nodes): increased accumulation of OVA-A647 with 3 but not 2 | adjuvant activity [2]: inactive

C[C@H]1O[C@@H](OC2C(O)C(NC(=O)CCCCCNC(=O)c3ccc(I)cc3)[C@H](CO)O[C@H]2OC(=O)C23CCC(C)(C)CC2C2=CCC4C5(C)CC[C@H](OC6OC(C(=O)O)[C@@H](O)[C@H](OC7OC[C@@H](O)[C@H](O)[C@@H]7O)[C@@H]6O[C@@H]6OC(CO)C(O)[C@@H](O)[C@@H]6O)[C@](C)(C=O)[C@@H]5CC[C@]4(C)[C@]2(C)C[C@@H]3O)C(O)C(O)C1O[C@@H]1OCC(O)C(O)C1O (stereo partly shown) [compound 6]
localization and retention at injection site and lymph nodes (conclusion) [3]: localizes to and is retained at the injection site and lymph nodes | antibody titers (anti-KLH, anti-MUC1, anti-OVA IgG) (C57BL/6J mice [4]): antibody titers comparable to both NQS-21 | toxicity assessed by mouse weight loss [5]: reduced toxicity compared to QS-21

CC1(C)CCC2(C(=O)NCCNC(=O)c3ccc(I)cc3)C(C1)C1=CCC3C4(C)CC[C@H](OC5OC(C(=O)O)[C@@H](O)[C@H](OC6OC[C@@H](O)[C@H](O)[C@@H]6O)[C@@H]5OC5OC(CO)[C@H](O)[C@H](O)[C@@H]5O)[C@](C)(C=O)[C@@H]4CC[C@]3(C)[C@]1(C)C[C@@H]2O (stereo partly shown) [compound 8]
adjuvant activity with OVA antigen (mice): poor adjuvant activity

C[C@@H]1O[C@@H](O[C@H]2[C@H](OC(=O)[C@]34CCC(C)(C)C[C@H]3C3=CC[C@@H]5[C@@]6(C)CC[C@H](O)[C@@](C)(C=O)[C@@H]6CC[C@@]5(C)[C@]3(C)C[C@H]4O)O[C@H](CO)[C@H](NC(=O)CCCCCNC(=O)c3ccc(I)cc3)[C@@H]2O)[C@H](O)[C@H](O)[C@H]1O[C@@H]1OC[C@@H](O)[C@H](O)[C@H]1O [compound 16]
KLH and MUC1 antibody responses (C57BL/6J mice [4]; three-component vaccine, exception anti-MUC1 titers at lower dose (20 μg)): comparable to those of parent aryl iodide 6, NQS-21, and SQS-21 | toxicity assessed by mouse weight loss [5]: much lower toxicity than NQS-21 and SQS-21

C[C@H]1O[C@@H](OC2C(O)C(NC(=O)CCCCCNC(=O)c3ccc(I)cc3)[C@H](CO)O[C@H]2OC(=O)[C@]23CCC(C)(C)CC2C2=CCC4C5(C)CC[C@H](O)C(C)(C)[C@@H]5CC[C@]4(C)[C@]2(C)CC3)C(O)C(O)C1O[C@@H]1OCC(O)C(O)C1O (stereo partly shown) [compound 18]
antibody titers (anti-KLH, anti-MUC1, anti-OVA IgG) (C57BL/6J mice [4]): lower antibody titers against all three antigens compared to the parent quillaic acid derivative 16 | toxicity assessed by mouse weight loss [5]: low toxicity

C[C@H]1O[C@@H](OC2C(O)C(NC(=O)CCCCCNC(=O)c3ccc(I)cc3)[C@H](CO)O[C@H]2OC(=O)[C@]23CCC(C)(C)CC2C2=CCC4C5(C)CC[C@H](O)[C@](C)(CO)[C@@H]5CC[C@]4(C)[C@]2(C)CC3O)C(O)C(O)C1O[C@@H]1OCC(O)C(O)C1O (stereo partly shown) [compound 19]
antibody responses (anti-KLH, anti-MUC1, anti-OVA IgG, anti-GD3 IgM and IgG) (C57BL/6J mice [6]): antibody titers slightly below those of echinocystic acid derivative 20; also recorded: antibody responses similar to the complete, branched trisaccharide-containing saponin 6 | IgG subtypes of anti-MUC1 and anti-OVA antibodies (C57BL/6J mice [7]): significant bias toward the mouse IgG1 and IgG2b subtype

C[C@H]1O[C@@H](OC2C(O)C(NC(=O)CCCCCNC(=O)c3ccc(I)cc3)[C@H](CO)O[C@H]2OC(=O)C23CCC(C)(C)CC2C2=CCC4C5(C)CC[C@H](O)C(C)(C)[C@@H]5CC[C@]4(C)[C@]2(C)C[C@@H]3O)C(O)C(O)C1O[C@@H]1OCC(O)C(O)C1O (stereo partly shown) [compound 20]
antibody responses (anti-KLH, anti-MUC1, anti-OVA IgG, anti-GD3 IgM and IgG) (C57BL/6J mice [6]): highest antibody responses to all four antigens; also recorded: immunostimulatory activity generally rivaling that of SQS-21 | toxicity (mouse weight loss) ([5]; four-component vaccine, one week after first injection): dramatically reduced toxicity compared to the natural product | IgG subtypes of anti-MUC1 and anti-OVA antibodies (C57BL/6J mice [7]): significant bias toward the mouse IgG1 and IgG2b subtype

C[C@H]1O[C@@H](OC2C(O)C(NC(=O)CCCCCNC(=O)c3ccc(I)cc3)[C@H](CO)O[C@H]2OC(=O)C23CCC(C)(C)CC2C2=CCC4C5(C)CC[C@H](O)[C@](C)(C=O)[C@@H]5CC[C@]4(C)[C@]2(C)CC3)C(O)C(O)C1O[C@@H]1OCC(O)C(O)C1O (stereo partly shown) [compound 21]
antibody responses (anti-KLH, anti-MUC1, anti-OVA IgG, anti-GD3 IgM and IgG) (C57BL/6J mice [6]): lower antibody responses in all cases except the anti-GD3 IgG response

C[C@@H]1O[C@@H](O[C@H]2[C@H](OC(=O)[C@]34CCC(C)(C)C[C@H]3C3=CC[C@@H]5[C@@]6(C)CC[C@H](O)[C@@](C)(CO)[C@@H]6CC[C@@]5(C)[C@]3(C)CC4)O[C@H](CO)[C@H](NC(=O)CCCCCNC(=O)c3ccc(I)cc3)[C@@H]2O)[C@H](O)[C@H](O)[C@H]1O[C@@H]1OC[C@@H](O)[C@H](O)[C@H]1O [compound 22]
antibody responses (anti-KLH, anti-MUC1, anti-OVA IgG, anti-GD3 IgM and IgG) (C57BL/6J mice [6]): lower antibody responses in all cases except the anti-GD3 IgG response

B1: [131I]-OVA: radioiodinated ovalbumin antigen (protein, UniProt P01012 2-386, looked up)
Ovalbumin: GSIGAASMEFCFDVFKELKVHHANENIFYCPIAIMSALAMVYLGAKDSTRTQINKVVRFDKLPGFGDSIEAQCGTSVNVHSSLRDILNQITKPNDVYSFSLASRLYAEERYPILPEYLQCVKELYRGGLEPINFQTAADQARELINSWVESQTNGIIRNVLQPSSVDSQTAMVLVNAIVFKGLWEKAFKDEDTQAMPFRVTEQESKPVQMMYQIGLFRVASMASEKMKILELPFASGTMSMLVLLPDEVSGLEQLESIINFEKLTEWTSSNVMEERKIKVYLPRMKMEEKYNLTSVLMAMGITDVFSSSANLSGISSAESLKISQAVHAAHAEINEAGREVVGSAEAGVDAASVSEEFRADHPFLFCIKHIATNAVLFFGRCVSP
modifications: 131I radiolabel
notes: radioiodinated ovalbumin antigen
thyroid uptake of [131I]-OVA [8]: thyroid uptake was also high
